Source: US5856535A, “Aminosterol ester compounds” (priority 1996, dated 1999)
In brackets after ≈: the same amount, converted by molar mass. Entries after “also recorded” stand apart in the source; their conditions may differ.

Assays:
[1] = system: bacteria, fungi and protozoa; conditions: cited from earlier work
[2] = system: chick embryo vitelline capillaries; experiment: chick embryo vitelline capillary regression assay; format: in vivo; conditions: for effect on vitelline capillaries (in words): 3- to 5-day chick embryo
Method: Using the chick embryo vitelline capillaries assay, various aminosterol compounds were tested for their ability to induce capillary regression. Each compound was applied in 0.1 ml of 15% Ficol 400 and PBS onto the embryo, and vascular regression was assessed after 60 minutes. These tests were conducted by the chorioallantoic membrane anti-angiogenesis assay by applying the material to be assayed to 3 day old fertilized chick embryos in the manner described by Wilks et al., "Inhibition of Angiogenesis With Combination Angiostatic Steroids and Suramin," Radiation Biology, Vol. 60, Nos. 1/2, 1991, pp. 73-77, which article is entirely incorporated herein by reference.
The 3-day chick embryo consists of an embryonic disc from which numerous vessels emerge and return, forming a "figure 8"-shaped structure--the embryo in the center with vascular loops extending outward over both poles. […] Following a lag period of around 15 minutes, the constriction of continuity between capillary and secondary vessels, generally on the "venous" side, was observed. Continued pulsatile blood flow progressed, resulting in a "swelling" of the blind tube, followed by a pinching off of the remaining connection and formation of an enclosed vascular sac resembling a "blood island." This process progressed until only the largest vessels remained intact.

[3] = system: human microvascular cells; experiment: endothelial cell cord formation assay (human microvascular cells, VEGF and bFGF, collagen matrix); format: cell-based
From the text: Endothelial cells have the capacity in vitro to form tubular aggregates resembling capillaries in various early stages of formation. This conversion occurs under relatively specific conditions, in which essential growth factors along with an effective substratum are provided. It has been shown that both the interaction of growth factors with the endothelial cell and its attachment to a substratum activate the NHE. The activation of this exchanger is believed to be required for subsequent morphologic transformation of the endothelial cell into a multicellular tubular structure.
To assess the effect of compounds on the cord-like structures formed by human microvascular cells when plated in the presence of VEGF (Vascular Endothelial Growth Factor) and basic fibroblast growth factor on a collagen matrix, a standard cord formation assay was performed using the method described by Goto, et al., "Synergistic Effects of Vascular Endothelial Growth Factor and Basic Fibroblast Growth Factor on the Proliferation and Cord Formation of Bovine Capillary Endothelial Cells Within Collagen Gels," Laboratory Investigation, Vol. 69, No. 5, 1993, pp. 508-517. This article is entirely incorporated herein by reference.

[4] = system: Xenopus laevis Stages 59-60 tadpoles; experiment: tadpole assay; format: in vivo; conditions: for vascular effect in tadpole (in words): about 60 minutes, 10 μg/ml where stated
splenocytes = experiment: mitogen proliferation assay (splenocytes of treated mice, Con A); format: in vivo; conditions: 10 mg/kg iv
Method: For the attached Tables, the mitogen proliferation assay was performed by treating mice (male or female) with various amounts of the aminosterol test compounds. Some time later (typically between 2 hours and 14 days), the mice are sacrificed and their spleens removed. Splenocytes are harvested and cultured in the presence of between 1-10 μg/ml of Con A (Sigma) for 48 hours. See James Morgan, "Monoclonal Antibody Production," Modern Methods in Pharmacology, pp. 29-67, eds., Spector and Back, 1988. This excerpt is entirely incorporated herein by reference. Cell proliferation is monitored either by direct cell counting or by measurement of the incorporation of radioactive thymidine.

melanoma cells = experiment: MTT assay for cell number; format: cell-based; conditions: Tables III-V; read-out: MTT assay IC50
Method: In Table V, several aminosterol esters show efficacy in killing melanoma cells in the MTT assay.
The MTT assay for cell number is performed as follows. Cells are counted on a hemocytometer and diluted to a concentration of approx. 10,000 cells/well (55,000 cells/ml×0.18 ml). Cells are then plated in a 96 well microtiter plate and allowed to attach overnight. The next day, compounds are serially diluted from 1000 to 15.6 μg/ml and run in duplicate. 20 μl of each dilution are transferred to the pre-seeded microtiter plates. The final concentrations are 100 to 1.56 μg/ml. The plates are then incubated for 48 hours at 37° C. in 5% CO2. After 48 hours, MTT solution is added. The plate is re-incubated for 4 hours. Readings are done by removing all but 30 μl of media and MTT solution and dissolving the formazan crystals with DMSO. The formazan is dissolved by mixing on a rotating plate at low speed for about 30 minutes. Absorbance of converted dye is measured at a wavelength of 560 nm with background subtraction at 630 nm. The percent survival is determined by a comparison between the mean absorbance of the duplicate test lanes and the growth control.

[5] = inhibition of MSI-1436 binding; conditions: 3H-MSI-1436 at 20 μg/mL
PBMC toxicity = conditions: human
HIV = experiment: inhibition of HIV replication in vitro (HIV Inhib.); format: cell-based

Compound | antibiotic activity (in words) [1] | effect on vitelline capillaries (in words) [2] | effect on vitelline capillaries (in words) ([2]; listed as squalamine) | hemorrhage, hemolysis and heartbeat of embryo (in words) ([2]; 3-day chick embryo) | minimal effective concentration ([3]; Homo sapiens, Endothelial cell, text to the table, read-out: concentration at which cord formation is inhibited) [µg/mL] | effect on cell viability or proliferation (in words) ([3]; at these concentrations) | unaffected functions in tadpole (in words) ([4]; 10 μg/ml) | vascular effect in tadpole (in words) [4] | Rel. potency to MSI-1436, Mitogen Proliferation Assay (splenocytes) | IC50 (melanoma cells) [µg/mL] | % Inhib. of MSI-1436 Binding @ 100 μg/mL [5] [%] | cytotoxicity at 14 µM (PBMC toxicity) [%] | % Inhib of HIV (HIV; 140 nM, 0.14 µM) [%] | inhibition at 0.14 µM (HIV; Human immunodeficiency virus 1, 140 nM, read-out: % Inhib of HIV) [%]
CC(C)[C@@H](CC[C@@H](C)[C@H]1CC[C@H]2[C@@H]3[C@H](O)C[C@H]4C[C@@H](NCCCNCCCCN)CC[C@]4(C)[C@H]3CC[C@]12C)OS(=O)(=O)O [Squalamine, squalamine, reference compound] | broad-spectrum antibiotic, killing bacteria, fungi and protozoa | disrupt vitelline capillaries in 3- to 5-day chick embryos | dramatic and rapid effect on capillary vessel integrity; also recorded: especially active | embryonic heart continued to beat vigorously; also recorded: No hemorrhage was seen; also recorded: absence of hemolysis | ~0.1 | does not appear to profoundly affect cell viability or proliferation | continued heartbeat; also recorded: unaltered blood flow through the fine capillaries of the hands and feet | blood flow through the capillaries of the tail shut down; also recorded: enhanced regression of the most distal aspects of the tail; also recorded: common vascular occlusive effect | – | – | – | – | – | –
CC(C)[C@@H](CC[C@@H](C)[C@H]1CC[C@H]2[C@@H]3[C@H](O)C[C@H]4C[C@@H](NCCCNCCCCNCCCN)CC[C@]4(C)[C@H]3CC[C@]12C)OS(=O)(=O)O [Compound 1436, reference compound] | – | – | – | – | – | – | – | common vascular occlusive effect | 1 | 7.8 (≈ 11.4 µM) | 82 | 0 | 78 | 76
